Here are results for eight molecules from ChEMBL document CHEMBL3991601, “The target landscape of clinical kinase drugs” (Science, 2017).

The source made the active and inactive calls. Rule as the data show it, for most assays here: actives have a measured Kd and inactives only a lower limit.

In general, Kd refers to the equilibrium constant for the complex coming apart.

In test [1] the target is Bone morphogenetic protein receptor type-1A (Homo sapiens, UniProt P36894).
The target in test [2] is Cyclin-dependent kinase 13 (Homo sapiens, UniProt Q14004).
The target in test [3] is Chromodomain-helicase-DNA-binding protein 4 (Homo sapiens, UniProt Q14839).
Chromodomain-helicase-DNA-binding protein 4, sequence (Q14839 whole entry, canonical isoform): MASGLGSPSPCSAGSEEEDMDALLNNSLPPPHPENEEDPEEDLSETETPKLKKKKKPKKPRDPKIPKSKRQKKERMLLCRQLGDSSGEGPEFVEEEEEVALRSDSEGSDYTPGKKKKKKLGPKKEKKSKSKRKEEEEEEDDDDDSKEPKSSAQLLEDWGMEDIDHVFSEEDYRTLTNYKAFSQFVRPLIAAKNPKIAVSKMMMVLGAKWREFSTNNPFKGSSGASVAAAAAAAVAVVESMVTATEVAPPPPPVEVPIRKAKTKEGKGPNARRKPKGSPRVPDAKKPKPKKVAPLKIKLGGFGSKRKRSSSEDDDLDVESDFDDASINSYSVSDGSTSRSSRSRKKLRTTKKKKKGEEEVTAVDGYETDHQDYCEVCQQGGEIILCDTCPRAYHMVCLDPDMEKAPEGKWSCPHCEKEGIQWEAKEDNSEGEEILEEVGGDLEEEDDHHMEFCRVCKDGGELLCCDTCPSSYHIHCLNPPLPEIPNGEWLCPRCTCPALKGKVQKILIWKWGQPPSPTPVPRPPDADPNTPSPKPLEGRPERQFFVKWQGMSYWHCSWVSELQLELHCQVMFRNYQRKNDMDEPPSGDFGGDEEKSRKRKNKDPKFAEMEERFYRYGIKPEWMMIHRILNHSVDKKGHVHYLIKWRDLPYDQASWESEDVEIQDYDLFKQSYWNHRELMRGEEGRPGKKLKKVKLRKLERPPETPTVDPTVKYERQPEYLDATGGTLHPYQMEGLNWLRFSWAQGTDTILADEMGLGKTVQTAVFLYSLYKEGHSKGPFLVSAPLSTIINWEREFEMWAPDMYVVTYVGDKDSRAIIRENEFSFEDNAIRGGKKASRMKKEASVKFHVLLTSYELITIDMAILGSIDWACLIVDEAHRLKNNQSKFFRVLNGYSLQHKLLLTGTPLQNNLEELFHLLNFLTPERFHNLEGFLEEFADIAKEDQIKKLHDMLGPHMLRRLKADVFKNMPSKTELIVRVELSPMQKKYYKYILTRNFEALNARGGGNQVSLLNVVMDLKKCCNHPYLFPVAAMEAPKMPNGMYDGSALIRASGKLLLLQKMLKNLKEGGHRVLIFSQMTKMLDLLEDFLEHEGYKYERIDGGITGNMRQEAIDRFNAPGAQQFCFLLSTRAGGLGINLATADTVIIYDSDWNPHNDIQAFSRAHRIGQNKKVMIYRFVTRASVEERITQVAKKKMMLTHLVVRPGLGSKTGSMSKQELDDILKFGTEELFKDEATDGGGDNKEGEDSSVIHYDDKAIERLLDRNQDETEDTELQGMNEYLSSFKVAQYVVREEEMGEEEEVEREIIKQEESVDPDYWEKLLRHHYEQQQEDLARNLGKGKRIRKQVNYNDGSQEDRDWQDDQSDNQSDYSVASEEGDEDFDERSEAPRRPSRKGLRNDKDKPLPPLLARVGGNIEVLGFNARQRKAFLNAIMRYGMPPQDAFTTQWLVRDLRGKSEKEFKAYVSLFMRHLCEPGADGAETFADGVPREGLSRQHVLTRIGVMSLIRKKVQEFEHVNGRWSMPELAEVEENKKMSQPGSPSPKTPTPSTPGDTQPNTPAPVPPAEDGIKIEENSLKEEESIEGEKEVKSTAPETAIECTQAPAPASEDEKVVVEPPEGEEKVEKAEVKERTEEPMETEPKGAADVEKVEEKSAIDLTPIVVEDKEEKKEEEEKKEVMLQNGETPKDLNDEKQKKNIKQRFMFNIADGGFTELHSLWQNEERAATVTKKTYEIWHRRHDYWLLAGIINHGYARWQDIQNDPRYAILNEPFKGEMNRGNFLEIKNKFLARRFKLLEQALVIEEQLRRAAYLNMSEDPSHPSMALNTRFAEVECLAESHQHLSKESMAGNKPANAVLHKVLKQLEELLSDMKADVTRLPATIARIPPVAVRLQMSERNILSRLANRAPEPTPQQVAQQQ
The target of test [4] is Casein kinase I isoform alpha (Homo sapiens, UniProt P48729).
Test [5] addresses T1, Scaffold protein ILK (Homo sapiens, UniProt Q13418).
T1 sequence (Q13418 whole entry): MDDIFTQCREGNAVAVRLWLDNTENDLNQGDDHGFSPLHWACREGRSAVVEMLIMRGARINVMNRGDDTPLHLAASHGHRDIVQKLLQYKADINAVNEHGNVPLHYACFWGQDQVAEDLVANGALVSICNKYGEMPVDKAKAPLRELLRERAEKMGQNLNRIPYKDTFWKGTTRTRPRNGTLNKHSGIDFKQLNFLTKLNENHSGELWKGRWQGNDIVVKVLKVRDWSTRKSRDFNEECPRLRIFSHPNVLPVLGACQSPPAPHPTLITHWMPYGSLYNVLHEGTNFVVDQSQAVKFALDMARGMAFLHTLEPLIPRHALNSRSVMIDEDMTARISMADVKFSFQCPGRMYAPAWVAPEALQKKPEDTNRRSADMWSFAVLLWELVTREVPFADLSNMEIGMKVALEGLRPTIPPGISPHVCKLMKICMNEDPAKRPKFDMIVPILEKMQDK

The target of test [6] is LIM domain kinase 2 (Homo sapiens, UniProt P53671).
LIM domain kinase 2, sequence (P53671 whole entry, the tested form may be a part): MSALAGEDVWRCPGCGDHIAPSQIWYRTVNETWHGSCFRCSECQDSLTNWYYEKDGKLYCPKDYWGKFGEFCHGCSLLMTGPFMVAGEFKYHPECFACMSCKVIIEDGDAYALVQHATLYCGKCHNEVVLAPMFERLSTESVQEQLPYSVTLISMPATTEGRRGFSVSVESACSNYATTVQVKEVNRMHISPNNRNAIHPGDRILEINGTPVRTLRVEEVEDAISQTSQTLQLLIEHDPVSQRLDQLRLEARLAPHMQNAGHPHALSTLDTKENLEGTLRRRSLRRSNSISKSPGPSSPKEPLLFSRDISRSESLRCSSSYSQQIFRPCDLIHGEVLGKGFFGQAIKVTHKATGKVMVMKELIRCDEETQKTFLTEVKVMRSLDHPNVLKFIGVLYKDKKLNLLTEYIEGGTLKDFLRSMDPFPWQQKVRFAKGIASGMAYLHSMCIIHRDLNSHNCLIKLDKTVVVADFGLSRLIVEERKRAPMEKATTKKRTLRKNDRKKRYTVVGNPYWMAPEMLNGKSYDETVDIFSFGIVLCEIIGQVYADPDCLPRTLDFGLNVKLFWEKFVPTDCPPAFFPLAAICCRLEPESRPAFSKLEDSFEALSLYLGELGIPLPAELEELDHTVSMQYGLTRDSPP
Test [7] concerns the target T2, Mitogen-activated protein kinase kinase kinase 2 (Homo sapiens, UniProt Q9Y2U5).
T2 sequence (Q9Y2U5 whole entry): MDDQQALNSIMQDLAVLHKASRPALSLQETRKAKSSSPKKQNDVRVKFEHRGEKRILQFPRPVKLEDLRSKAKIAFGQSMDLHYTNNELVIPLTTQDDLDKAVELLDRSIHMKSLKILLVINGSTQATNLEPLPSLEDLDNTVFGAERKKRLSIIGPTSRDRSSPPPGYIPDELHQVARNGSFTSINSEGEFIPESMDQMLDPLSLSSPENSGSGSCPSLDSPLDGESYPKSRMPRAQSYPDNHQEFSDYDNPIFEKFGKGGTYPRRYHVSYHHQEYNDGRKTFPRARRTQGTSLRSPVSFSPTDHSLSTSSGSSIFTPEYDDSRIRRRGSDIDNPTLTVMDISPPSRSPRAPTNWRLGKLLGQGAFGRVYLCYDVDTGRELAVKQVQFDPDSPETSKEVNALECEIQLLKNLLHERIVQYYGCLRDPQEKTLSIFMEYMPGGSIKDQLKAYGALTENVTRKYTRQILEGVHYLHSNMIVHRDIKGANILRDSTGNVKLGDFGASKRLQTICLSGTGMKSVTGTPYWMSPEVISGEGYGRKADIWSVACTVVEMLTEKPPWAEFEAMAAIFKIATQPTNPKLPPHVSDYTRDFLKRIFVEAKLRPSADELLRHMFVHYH

Test [8] deals with T3, Mitogen-activated protein kinase kinase kinase 5 (Homo sapiens, UniProt Q99683).
T3 sequence (Q99683 whole entry): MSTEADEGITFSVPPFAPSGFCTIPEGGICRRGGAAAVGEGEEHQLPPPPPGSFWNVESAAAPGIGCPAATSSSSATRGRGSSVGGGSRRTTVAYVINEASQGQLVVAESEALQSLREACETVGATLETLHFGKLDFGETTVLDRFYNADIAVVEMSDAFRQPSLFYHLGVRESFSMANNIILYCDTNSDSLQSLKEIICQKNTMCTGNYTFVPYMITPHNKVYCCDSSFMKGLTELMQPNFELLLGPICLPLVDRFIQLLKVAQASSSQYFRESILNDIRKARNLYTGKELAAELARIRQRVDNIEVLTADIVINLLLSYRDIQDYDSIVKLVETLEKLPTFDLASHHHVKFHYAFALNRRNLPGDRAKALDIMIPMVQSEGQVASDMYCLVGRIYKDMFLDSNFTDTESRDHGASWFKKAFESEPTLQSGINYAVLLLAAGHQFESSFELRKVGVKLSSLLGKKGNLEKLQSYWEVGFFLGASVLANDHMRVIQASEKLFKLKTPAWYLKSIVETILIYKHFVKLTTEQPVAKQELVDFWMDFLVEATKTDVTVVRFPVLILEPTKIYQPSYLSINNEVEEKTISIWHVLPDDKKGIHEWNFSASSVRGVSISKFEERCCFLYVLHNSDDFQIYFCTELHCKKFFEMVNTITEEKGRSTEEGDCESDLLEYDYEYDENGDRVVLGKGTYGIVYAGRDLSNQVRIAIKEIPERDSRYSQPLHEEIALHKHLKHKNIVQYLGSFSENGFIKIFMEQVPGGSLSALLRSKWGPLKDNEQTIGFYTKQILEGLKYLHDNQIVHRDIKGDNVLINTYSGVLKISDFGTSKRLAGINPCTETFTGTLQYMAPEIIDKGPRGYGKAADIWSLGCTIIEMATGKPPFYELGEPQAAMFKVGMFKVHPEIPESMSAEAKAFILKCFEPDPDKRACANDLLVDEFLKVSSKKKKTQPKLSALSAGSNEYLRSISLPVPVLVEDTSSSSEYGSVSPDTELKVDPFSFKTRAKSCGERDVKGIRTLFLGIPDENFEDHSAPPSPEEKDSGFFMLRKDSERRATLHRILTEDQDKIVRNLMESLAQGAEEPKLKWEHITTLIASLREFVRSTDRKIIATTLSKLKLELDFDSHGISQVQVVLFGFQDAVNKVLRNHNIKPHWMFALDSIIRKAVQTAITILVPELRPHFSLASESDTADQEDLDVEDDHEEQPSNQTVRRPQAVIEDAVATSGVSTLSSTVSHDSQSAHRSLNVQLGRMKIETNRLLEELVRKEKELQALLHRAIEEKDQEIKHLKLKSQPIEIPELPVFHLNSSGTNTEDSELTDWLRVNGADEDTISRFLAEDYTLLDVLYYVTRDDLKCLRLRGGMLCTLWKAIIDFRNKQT

The target in test [9] is Mitogen-activated protein kinase 11 (Homo sapiens, UniProt Q15759).
The target of test [10] is Maternal embryonic leucine zipper kinase (Homo sapiens, UniProt Q14680).
The target in test [11] is Myosin-14 (Homo sapiens, UniProt Q7Z406).
Myosin-14, sequence (Q7Z406 whole entry): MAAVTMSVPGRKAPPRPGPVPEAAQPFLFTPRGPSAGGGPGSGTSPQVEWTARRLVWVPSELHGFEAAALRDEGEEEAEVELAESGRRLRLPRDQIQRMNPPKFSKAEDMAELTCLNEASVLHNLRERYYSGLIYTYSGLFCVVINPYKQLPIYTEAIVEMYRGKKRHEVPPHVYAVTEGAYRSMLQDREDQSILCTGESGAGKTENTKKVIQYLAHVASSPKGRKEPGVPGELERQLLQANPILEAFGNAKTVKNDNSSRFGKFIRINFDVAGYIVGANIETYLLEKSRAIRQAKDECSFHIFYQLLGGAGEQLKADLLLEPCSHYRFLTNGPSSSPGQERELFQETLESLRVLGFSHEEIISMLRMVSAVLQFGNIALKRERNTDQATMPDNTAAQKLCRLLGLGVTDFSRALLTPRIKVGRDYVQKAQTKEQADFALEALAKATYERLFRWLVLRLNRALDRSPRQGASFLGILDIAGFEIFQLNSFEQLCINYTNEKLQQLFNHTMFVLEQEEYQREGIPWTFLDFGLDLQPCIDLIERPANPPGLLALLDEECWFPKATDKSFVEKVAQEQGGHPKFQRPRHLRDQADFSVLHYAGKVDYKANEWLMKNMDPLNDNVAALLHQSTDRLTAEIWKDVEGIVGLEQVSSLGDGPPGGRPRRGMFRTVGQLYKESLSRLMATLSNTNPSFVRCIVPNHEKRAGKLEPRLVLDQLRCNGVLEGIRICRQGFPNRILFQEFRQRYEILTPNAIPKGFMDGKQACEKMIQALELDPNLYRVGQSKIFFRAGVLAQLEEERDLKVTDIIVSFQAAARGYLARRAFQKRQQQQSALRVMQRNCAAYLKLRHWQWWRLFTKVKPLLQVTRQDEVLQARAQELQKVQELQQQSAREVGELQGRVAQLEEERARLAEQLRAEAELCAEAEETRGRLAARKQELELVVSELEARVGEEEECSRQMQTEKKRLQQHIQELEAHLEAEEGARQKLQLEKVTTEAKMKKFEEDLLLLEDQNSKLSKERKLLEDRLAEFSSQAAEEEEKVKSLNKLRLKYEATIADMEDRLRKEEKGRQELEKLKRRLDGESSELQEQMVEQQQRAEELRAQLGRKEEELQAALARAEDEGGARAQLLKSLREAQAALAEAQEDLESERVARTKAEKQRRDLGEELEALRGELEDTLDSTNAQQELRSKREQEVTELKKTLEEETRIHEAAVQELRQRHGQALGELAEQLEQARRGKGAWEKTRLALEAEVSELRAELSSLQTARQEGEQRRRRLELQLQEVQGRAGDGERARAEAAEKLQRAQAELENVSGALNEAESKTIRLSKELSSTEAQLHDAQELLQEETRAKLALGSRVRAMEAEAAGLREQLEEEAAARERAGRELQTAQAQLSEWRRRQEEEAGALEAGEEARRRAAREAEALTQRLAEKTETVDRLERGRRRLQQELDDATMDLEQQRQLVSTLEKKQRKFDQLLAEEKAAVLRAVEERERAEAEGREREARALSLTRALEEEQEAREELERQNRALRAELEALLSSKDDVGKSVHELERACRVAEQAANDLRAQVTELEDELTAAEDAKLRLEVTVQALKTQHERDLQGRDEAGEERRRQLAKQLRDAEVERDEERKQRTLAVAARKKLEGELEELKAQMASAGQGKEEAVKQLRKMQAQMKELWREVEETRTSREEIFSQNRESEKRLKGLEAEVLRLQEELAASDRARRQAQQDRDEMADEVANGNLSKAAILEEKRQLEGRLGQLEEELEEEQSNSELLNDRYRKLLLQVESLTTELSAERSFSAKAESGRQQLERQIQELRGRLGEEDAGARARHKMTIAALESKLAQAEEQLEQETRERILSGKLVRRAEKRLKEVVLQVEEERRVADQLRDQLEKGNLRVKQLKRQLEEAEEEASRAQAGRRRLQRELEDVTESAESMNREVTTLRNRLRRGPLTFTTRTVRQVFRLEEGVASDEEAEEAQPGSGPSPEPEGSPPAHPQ
Test [12] concerns the target Proto-oncogene tyrosine-protein kinase Src (Homo sapiens, UniProt P12931).
The target in test [13] is Activated CDC42 kinase 1 (Homo sapiens, UniProt Q07912).
Also: in the data inactive means no Kd found up to 30 µM.

Bone morphogenetic protein receptor type-1A, sequence (P36894 whole entry): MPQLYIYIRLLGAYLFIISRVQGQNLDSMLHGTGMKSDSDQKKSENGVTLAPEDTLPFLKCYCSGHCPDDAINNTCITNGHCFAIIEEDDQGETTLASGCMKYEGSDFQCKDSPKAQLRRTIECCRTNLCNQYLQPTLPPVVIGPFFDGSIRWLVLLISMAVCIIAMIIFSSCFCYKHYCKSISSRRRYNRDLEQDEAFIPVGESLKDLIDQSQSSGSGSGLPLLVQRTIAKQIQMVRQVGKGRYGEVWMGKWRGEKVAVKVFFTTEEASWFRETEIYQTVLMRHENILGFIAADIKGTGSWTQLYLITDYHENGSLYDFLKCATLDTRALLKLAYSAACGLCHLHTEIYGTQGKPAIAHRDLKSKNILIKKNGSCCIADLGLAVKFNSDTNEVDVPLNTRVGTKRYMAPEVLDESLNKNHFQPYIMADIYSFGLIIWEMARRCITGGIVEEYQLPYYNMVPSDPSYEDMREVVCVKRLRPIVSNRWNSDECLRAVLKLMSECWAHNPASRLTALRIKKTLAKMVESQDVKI

Regarding `NC[C@@](O)(c1ccc(Cl)cc1)c1ccc(-c2cn[nH]c2)cc1` [AT-13148], the Kd in test [1], in test [2], in test [3], in test [4], in test [5] and in [6] was > 30 µM (inactive) throughout. The Kd in [7], in test [8], in test [9], in test [10], in [11] and in test [12] was > 30 µM (inactive) in each case. Also, the Kd in test [13] is > 30 µM (inactive).

On to `COc1cc2ncnc3c2cc1OCCCCCN(C)Cc1ccc(Br)cc1N3` [JNJ-26483327], for which the Kd in test [1], in test [2], in test [3], in test [4], in [5] and in test [6] was > 30 µM (inactive) throughout. In addition, the Kd in test [7], in test [8], in test [9], in [10], in test [11] and in test [12] was > 30 µM (inactive) throughout. In addition, in [13], the Kd was > 30 µM (inactive).

Take `CCc1cc2c(cc1N1CCC(N3CCOCC3)CC1)C(C)(C)c1[nH]c3cc(C#N)ccc3c1C2=O` [ALECTINIB]: the Kd in [1], in test [2], in test [3], in test [4], in test [5] and in [6] was > 30 µM (inactive) in each case. The Kd in [7], in test [8], in [9], in test [10], in [11] and in [12] was > 30 µM (inactive) each time. In test [13], the Kd is > 30 µM (inactive).

For `COc1cc2ncnc(Nc3ccc(F)c(Cl)c3)c2cc1NC(=O)/C=C/CN1CCCCC1` [DACOMITINIB ANHYDROUS], the Kd in test [1], in [2], in [3], in test [4], in test [5] and in test [6] was > 30 µM (inactive) throughout. Also, the Kd in test [7], in [8], in test [9], in [10], in test [11] and in test [12] was > 30 µM (inactive) throughout. In addition, the Kd in test [13] is > 30 µM (inactive).

Regarding `Cc1c(NC(=O)OC[C@@H]2COCCN2)cn2ncnc(Nc3ccc4c(cnn4Cc4cccc(F)c4)c3)c12` [AC-480], the Kd in test [1], in test [2], in [3], in test [4], in test [5] and in test [6] was > 30 µM (inactive) in each case. Further, the Kd in test [7], in [8], in [9], in [10], in test [11] and in [12] was > 30 µM (inactive) each time. In [13], the Kd was > 30 µM (inactive).

Take `COc1cc2nccc(Oc3ccc(NC(=O)C4(C(=O)Nc5ccc(F)cc5)CC4)cc3)c2cc1OC` [CABOZANTINIB]: the Kd in test [1], in [2], in test [3], in test [4], in test [5] and in [6] was > 30 µM (inactive) throughout. The Kd in [7], in test [8], in [9], in test [10], in [11] and in [12] was > 30 µM (inactive) each time. The Kd in [13] is > 30 µM (inactive).

As to `Cc1c(Cn2c(C)nc3c(C(=O)O)cc(N4CCOCC4)cc32)cccc1C(F)(F)F` [GSK-2636771], the Kd in test [1], in [2], in test [3], in test [4], in test [5] and in [6] was > 30 µM (inactive) in each case. Further, the Kd in test [7], in [8], in [9], in [10], in test [11] and in [12] was > 30 µM (inactive) throughout. Moreover, the Kd in test [13] was > 30 µM (inactive).

`Cc1cc(Nc2nc(N[C@@H](C)c3ncc(F)cn3)ncc2Cl)n[nH]1` [AZD-1480]: the Kd in test [1], in test [2], in test [3], in test [4], in [5] and in test [6] was > 30 µM (inactive) throughout. Also, the Kd in [7], in test [8], in test [9], in test [10], in test [11] and in [12] was > 30 µM (inactive) throughout. Further, in test [13], the dissociation constant (Kd) is 0.515 µM (active).
